Reference: US20100249064A1, “METHODS AND COMPOSITIONS FOR TREATING DISEASES AND CONDITIONS INVOLVING HIGHER MOLECULAR WEIGHT HYALURONAN” (University of Chicago, priority 2007, published 2010)
“Also recorded” adds a separate entry of the source.

What was measured:
[1] = tested on: MARCKS and NHE1; assay: LPS-induced phosphorylation of MARCKS and NHE1 (immunoprecipitation/immunoblot); format: cell-based, human; details: LPS 1 μg/ml, 4 hours, HMW-HA 100 nM or Y-27632 500 nM
[2] = tested on: ARDS; details: cited from earlier work; for Outcome (clinical trials in ARDS): patients with ARDS
[3] = tested on: Rac1; assay: Rac1 activation assay, HGF; format: cell-based, human; details: HGF 25 ng/ml
Method: Rac1 Activation Assay—Rac1 activity assays were performed as described (Ren et al., 1999) in human lung EC.

[4] = tested on: c-Met, CD44v10, Tiam1, cortactin, dynamin 2 in CEM; assay: HGF-induced recruitment of proteins to caveolin-enriched microdomains (CEM); format: cell-based, human
Method: Caveolin-enriched microdomain (CEM) isolation—Caveolin-enriched microdomain known as detergent-resistant membranes (DRM) or lipid rafts were isolated from HPMVEC (Singleton et al., 2006; Singleton et al., 2005). Triton X-100-insoluble materials were mixed with 0.6 ml of cold 60% Optiprep™ and then overlaid with 0.6 ml of 40%-20% Optiprep™. Gradients were centrifuged (35,000 rpm) in SW60 rotor for 12 h at 4° C. and different fractions were collected and analyzed.
Immunoprecipitation and Immunoblotting—Cellular materials from treated or untreated HPMVEC were incubated with IP buffer (50 mM HEPES (pH 7.5), 150 mM NaCl, 20 mM MgCl2, 1% Nonidet P-40 (NP-40), 0.4 mM Na3VO4, 40 mM NaF, 50 μM okadaic acid, 0.2 mM phenylmethylsulfonyl fluoride, 1:250 dilution of Calbiochem protease inhibitor mixture 3). Following immunoprecipitation with either anti-CD44 or anti-dynamin 2 IgG, the samples were subjected to SDS-PAGE in 4-15% polyacrylamide gels, transferred onto Immobilon™ membranes, and developed with specific primary and secondary antibodies. Enhanced chemiluminescence (Amersham Biosciences) was used to visualize immunoreactive bands. In some instances, standardized average grey values (S.A.G.V., processed from ImageQuant™ software (Amersham Biosciences)) were obtained for immunoreactive bands for quantification.
Determination of Complex Formation between CD44 and c-Met—Solubilized CEM proteins in IP buffer (see above) were immunoprecipitated with rat anti-CD44 antibody or anti-c-Met antibody followed by SDS-PAGE in 4-15% polyacrylamide gels and transfer onto Immobilon™ membranes (Millipore Corp., Bedford, Mass.). Nonspecific sites were blocked with 5% bovine serum albumin, and then the blots were incubated with either rat anti-CD44 antibody or mouse anti-c-Met antibody followed by incubation with horseradish peroxidase (HRP)-labeled goat anti-mouse or goat anti-rat IgG. Visualization of immunoreactive bands was achieved using enhanced chemiluminescence (Amersham Biosciences).

[5] = tested on: LPS-induced murine lung vascular permeability; assay: LPS-induced murine lung vascular permeability, bronchioalveolar lavage (BAL) protein and cytokines; format: in vivo, mouse
Method: Animal Preparation and Treatment—Male C57BL/6J and CD44 knockout mice (8-10 weeks, Jackson Laboratories, Bar Harbor, Me.) were anesthetized with intraperitoneal ketamine (150 mg/kg) and acetylpromazine (15 mg/kg) according to approved protocols. LPS (2.5 mg/kg) or saline (control) were instilled intratracheally and four hours later, HGF (50 μg/kg) or saline control delivered intravenously through the internal jugular vein. The animals were allowed to recover for 24 h followed by bronchioalveolar lavage protein analysis and/or lung immunohistochemistry.
Determination of Bronchioalveolar Lavage Protein Concentration—Bronchioalveolar lavage (BAL) was performed by an intratracheal injection of 1 cc of Hank's balanced salt solution followed by gentle aspiration. The recovered fluid was processed for protein concentration (BCA Protein Assay Kit; Pierce Chemical Co., Rockford, Ill.) as described (Su et al., 2004).
Animals. Male C57BL/6J mice, CD44 knockout mice, Caveolin-1 knockout mice (8-10 weeks, Jackson Laboratories, Bar Harbor, Me.) were anesthetized with intraperitoneal ketamine (150 mg/kg) and acetylpromazine (15 mg/kg) according to approved protocols. LPS (2.5 mg/kg) or saline (control) were instilled intratracheally and four hours later, HMW-HA (1.5 mg/kg) or saline control delivered intravenously through the internal jugular vein. The animals were allowed to recover for 24 hours followed by bronchioalveolar lavage protein analysis and/or lung immunohistochemistry.
Determination of protein concentration. Total protein concentration. TGF-alpha concentration. TGF-beta1 concentration. Bronchioalveolar lavage (BAL) was performed by an intratracheal injection of 1 cc of Hank's balanced salt solution followed by gentle aspiration. The recovered fluid was processed for protein concentration (BCA Protein Assay Kit; Pierce Chemical Co., Rockford, Ill.) or used to determine TNF-α and TGF-β1 concentrations using quantitative sandwich enzyme immunoassays (R & D Systems, Minneapolis, Minn.).
Animal Preparation and Treatment. Male C57BL/6J, B6129N2, CD44^−/− or caveolin-1^−/− mice (8-10 weeks, Jackson Laboratories, Bar Harbor, Me.) were anesthetized with intraperitoneal ketamine (150 mg/kg) and acetylpromazine (15 mg/kg) before exposure of the right internal jugular vein via neck incision. LPS (2.5 mg/kg) or water (control) were instilled intratracheally. Four hours later, mice receive high MW HA (1.5 mg/kg) or water control through the internal jugular vein. The animals were allowed to recover for 24 hours after LPS before bronchioalveolar lavage protein and cytokine concentration and/or lung immunohistochemistry/immunoblot analysis (Peng et al., 2004).
Determination of Bronchoavleolar Lavage Protein and Cytokine Concentration. Bronchioalveolar lavage (BAL) was performed by an intratracheal injection of 1 cc of Hank's balanced salt solution followed by gentle aspiration. The recovered fluid was processed for protein concentration (BCA Protein Assay Kit; Pierce Chemical Co., Rockford, Ill.) (Peng et. al., 2004). Cytokines (IL-6, TNFalpha) were measured using a Quantikine sandwich ELISA kit (R & D Systems).

[6] = target: Hyaluronic Acid Binding Protease 2 (HABP2), human (human, UniProt Q14520 24-560, limits assumed); assay: anti-HABP2 immunoprecipitation of EC media, non-reducing SDS-PAGE, immunoblot with anti-HABP2 or anti-C1INH
[7] = target: T1, purified HABP2 (Homo sapiens, UniProt Q14520); assay: HABP2 protease assay (QuantiCleave, succinylated casein); format: biochemical; details: 100 μM purified PABD, 500 nM HMW-HA or LMW-HA
T1 construct: host or cells: human pulmonary endothelial cells (EC); secreted into the medium, immunoprecipitated with anti-HABP2 antibody
Method: HABP2 protease assay. Protease activity is measured using the QuantiCleave™ Protease Assay Kit (Pierce). Briefly, the immunobeads are incubated with succinylated casein for one hour followed by development with TNBSA (2,4,6-trinitrobenzene sulfonic acid) and read at 450 nm.
HABP2 protein purification and protease activity determination. Media from HABP2 overexpression vector-transfected EC (Origene) was immunoprecipitated with anti-HABP2 antibody-conjugated Sepharose beads (Sigma). The immunobeads were then extensively washed in 50 mM Borate, pH=8.5 and eluted with 1M NaCl with 0.1% NP-40 and dialyzed against a 1,000 fold excess of 50 mM Borate, pH=8.5. Protein assays were performed to quantitate total protein. The purified protein was run on SDS-PAGE and either immunoblotted with anti-HABP2 antibody (Novus Biologicals) or stained with Imperial™ protein stain (Pierce) to check for purity. Protease activity was measured using the QuantiCleave™ Protease Assay Kit (Pierce). Briefly, the immunobeads were incubated with succinylated casein for one hour followed by development with TNBSA (2,4,6-trinitrobenzene sulfonic acid) and read at 450 nm.
Determination of the role of HMW-HA/HABP2/C1INH interactions in regulating angiogenesis in vitro. Human pulmonary EC (Cambrex), grown in EBM-2 complete medium (Cambrex) at 37° C. in a humidified atmosphere of 5% CO2, 95% air, with passages 6-10 used for experimentation will be treated with or without 100 nM HMW-HA and/or 100 nM VEGF in the presence or absence of HABP2 and/or C1INH overexpression vectors (Origene), exogenous purified recombinant HABP2 polyanion binding domain and/or C1INH (Novus Biologicals) and/or siRNA (scramble, HABP2 or C1INH). For HABP2 protease activity determination, media from HABP2 overexpressing EC (see above) was immunoprecipitated with anti-HABP2 antibody-conjugated Sepharose beads (Sigma). The immunobeads were then extensively washed in 50 mM Borate, pH=8.5 and protease activity was measured using the QuantiCleave™ Protease Assay Kit (Pierce). Briefly, the immunobeads were incubated with succinylated casein for one hour followed by development with TNBSA (2,4,6-trinitrobenzene sulfonic acid) and read at 450 nm.

Hyaluronic Acid Binding Protease 2 (HABP2), human, sequence (Q14520 24-560 limits assumed): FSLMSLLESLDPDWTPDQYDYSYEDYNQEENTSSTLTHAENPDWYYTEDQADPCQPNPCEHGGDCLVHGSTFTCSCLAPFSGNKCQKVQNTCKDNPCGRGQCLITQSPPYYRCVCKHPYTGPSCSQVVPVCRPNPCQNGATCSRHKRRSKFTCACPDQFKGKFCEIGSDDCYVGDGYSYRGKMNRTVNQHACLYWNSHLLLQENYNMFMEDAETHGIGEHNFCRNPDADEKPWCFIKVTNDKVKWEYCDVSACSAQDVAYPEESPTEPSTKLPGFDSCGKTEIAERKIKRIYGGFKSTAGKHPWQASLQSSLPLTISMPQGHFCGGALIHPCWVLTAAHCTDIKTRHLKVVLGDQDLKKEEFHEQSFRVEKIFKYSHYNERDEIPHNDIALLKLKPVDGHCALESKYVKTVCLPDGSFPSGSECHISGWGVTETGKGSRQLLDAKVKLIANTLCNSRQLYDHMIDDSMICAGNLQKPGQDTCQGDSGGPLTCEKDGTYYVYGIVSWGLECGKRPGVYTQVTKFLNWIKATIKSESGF
T1 sequence (Q14520 24-560): as the sequence (Q14520 24-560 limits assumed) above

In the case of C[C@@H](N)[C@H]1CC[C@H](C(=O)Nc2ccncc2)CC1 [Y-27632, reference compound], the “LPS-induced phosphorylation of MARCKS and NHE1” value [1] is reported as “inhibit LPS-induced phosphorylation of MARCKS and NHE1”.

In the case of Nitric Oxide [NO], the adverse effects ([2]; ARDS patients) is listed as “causes methemoglobinemia, increased”, the pulmonary artery pressure ([2]; ARDS patients) is listed as “NO reduces pulmonary artery pressure but” and the “Outcome (clinical trials in ARDS)” value [2] is listed as “several multicenter clinical trials have shown no”.

With “HGF: Recombinant human hepatocyte growth factor (HGF), Chemicon International” the Rac1 activation [3] was “induced Rac1 activation”, the “recruitment of Tiam1, cortactin and dynamin 2 to CEM” value ([4]; HGF 25 ng/ml) was “increased recruitment to these caveolin-enriched plasma membrane microdomain structures” and the “recruitment of total CD44v10 into CD44s-containing CEM” value ([4]; HGF 25 ng/ml) was about 70%. For the same molecule, the “recruitment of total c-Met into CD44s-containing CEM” value ([4]; HGF 25 ng/ml) was about 55%, the “association of c-Met with CD44v10 in CEM” value ([4]; HGF 25 ng/ml, 5, 15 or 30 min) was “induce an association that is time-dependent of c-Met with CD44v10” and the “protective effect on LPS-induced pulmonary hyper-permeability (BAL) in knockout mice” value ([5]; CD44 knockout (and, where stated, Caveolin-1 knockout) mice, same regimen) was “markedly attenuated in the CD44 knockout mouse; also recorded: significant difference (p<0.05) between the wildtype and CD44 knockout mouse HGF+LPS treatment”. The “LPS-induced pulmonary hyper-permeability (BAL protein concentration)” value ([5]; wildtype C57BL/6J mice, LPS 2.5 mg/kg intratracheally, HMW-HA 1.5 mg/kg or HGF 50 μg/kg intravenously 4 hours after LPS, BAL at 24 hours) was “pulmonary hyper-permeability was attenuated; also recorded: significant difference (p<0.05) between LPS treatment and HGF+LPS treatment”.

For C[C@@H](O)CCCCn1c(=O)c2c(ncn2C)n(C)c1=O [Lisofylline], the “Outcome (clinical trials in ARDS)” value [2] is listed as “trials failed to show efficacy in increasing”.

In the case of C[C@H]1C[C@@H]2[C@H]([C@@H](O)C[C@@]3(C)[C@H]2CC[C@]3(O)C(=O)CO)[C@@]2(C)C=CC(=O)C=C12 [Methyprednisolone], the hospital mortality ([2]; administered through the fibroproliferative stage of ARDS, 62% in placebo cohort) is given as “hospital mortality to 12% from 62% in placebo”.

B1: C1INH, human (other, UniProt P05155 23-500, looked up)
chain: NPNATSSSSQDPESLQDRGEGKVATTVISKMLFVEPILEVSSLPTTNSTTNSATKITANTTDEPTTQPTTEPTTQPTIQPTQPTTQLPTDSPTQPTTGSFCPGPVTLCSDLESHSTEAVLGDALVDFSLKLYHAFSAMKKVETNMAFSPFSIASLLTQVLLGAGENTKTNLESILSYPKDFTCVHQALKGFTTKGVTSVSQIFHSPDLAIRDTFVNASRTLYSSSPRVLSNNSDANLELINTWVAKNTNNKISRLLDSLPSDTRLVLLNAIYLSAKWKTTFDPKKTRMEPFHFKNSVIKVPMMNSKKYPVAHFIDQTLKAKVGQLQLSHNLSLVILVPQNLKHRLEDMEQALSPSVFKAIMEKLEMSKFQPTLLTLPRIKVTTSQDMLSIMEKLEFFDFSYDLNLCGLTEDPDLQVSAMQHQTVLELTETGVEAAAASAISVARTLLVFEVQQPFLFVLWDQQHKFPVFMGRVYDPRA
notes: also called C1NH; C1 NH
B1: binds [6].

B2: recombinant peptide of the PABD of HABP2: recombinant HABP2 polyanion binding domain, amino acids 110-188 of SEQ ID NO:2 (SEQ ID NO:37) (protein, listed as Homo sapiens)
chain: KVQNTCKDNPCGRGQCLITQSPPYYRCVCKHPYTGPSCSQVVPVCRPNPCQNGATCSRHKRRSKFTCACPDQFKGKFCE
With B2 the “blocking of HA effects on HABP2 protease activity” value [7] was “The effects of LMW-HA, but not HMW-HA, were blocked”.
